Laboratory results: patent US20220144775A1, “HYDRAZIDE COMPOUND AND KINASE INHIBITOR” (NISSAN CHEMICAL CORPORATION, priority 2019, published 2022)

Legend:
[1] = test system: YAP; assay: YAP phosphorylation inhibitory action in SKOV3 (HTRF); format: cell-based, human; conditions: 10 μM, 1 hr, non-treatment 100%
Procedure: Human ovarian cancer cell line SKOV3 (manufactured by DS Pharma Biomedical Co., Ltd.) was precultured using a 15% FBS-containing McCoy's 5a medium (manufactured by Sigma-Aldrich) (single layer culture). The above-mentioned cells in the logarithmic growth phase were washed with PBS. A 0.25% (w/v) trypsin-1 mmol/L ethylenediaminetetraacetic acid (EDTA) solution (manufactured by FUJIFILM Wako Pure Chemical Corporation) was added and the adherent cells were incubated at 37° C. for 3 min and detached. The above-mentioned medium was added, and the cells were centrifuged and resuspended in the same medium.
According to the method of patent document 1 (WO 2014/017513), a composition of 10% FBS-containing DMEM medium (Phenol-red free, manufactured by FUJIFILM Wako Pure Chemical Corporation) containing 0.015% (w/v) deacylated gellan gum (KELCOGEL CG-LA, manufactured by SANSHO Co., Ltd.) was prepared using FCeM-series Preparation Kit (manufactured by FUJIFILM Wako Pure Chemical Corporation). Then, various cells prepared above were suspended in the above-mentioned medium composition (3D culture conditions) added with deacylated gellan gum or a medium without the addition (2D culture conditions), and seeded on a 50 μL/well (manufactured by Corning Incorporated, a 96 well flat bottom plate, #3585, 2D culture conditions) or 25 μL/well (manufactured by Corning Incorporated, 96 well low adhesion flat bottom plate, #3474) at 100000 cells/well. The plate was allowed to stand at 37° C. in a 5% CO2 incubator, and the compound of the present invention diluted with the medium at 2 or 6 times the final concentration, DMSO, or the medium alone was added to the plate 3 hr after the seeding at 50 μL/well (2D culture conditions) or 5 μL/well (3D culture conditions) to make the final concentration of each compound 10 μM. After culture at 37° C. in a 5% CO2 incubator for 1 hr, the supernatant was aspirated, supplemented Lysis buffer (1-fold concentration, manufactured by Cisbio, YAP-total kit or YAP phospho-S27 kit) (50 μL) was added under 2D culture conditions, and supplemented Lysys buffer (4-fold concentration) (10 μL) was added to the culture supernatant under 3D conditions, and the mixture was stirred by a plate shaker for 30 min. Thereafter, the plate was centrifuged, 16 μL of the supernatant was transferred to a 384-well white plate (Corning, #4512), and each antibody solution (pYAP d2 antibody or Total-YAP d2 antibody, and pYAP Cryptate antibody or Total-YAP Cryptate antibody) included in the kit was added at 4 μL/well in total, and the mixture was allowed to stand at room temperature overnight. As a blank control, pYAP Cryptate antibody or Total-YAP Cryptate antibody alone was added to cells free of stimulation with compound and the mixture was treated in the same manner. The next day, the wavelengths at 665 nm and 615′ nm were measured in the HTRF mode of EnVision (manufactured by PerkinElmer).
The obtained signal was calculated as follows. Ratio=signal (665 nm)/signal (615 nm)×10000, ΔR=Signal(Ratio)−Background fluorescence, and the relative phosphorylated YAP amount or total YAP amount for each compound when ΔR of the compound non-addition group (non-treatment) is 100% is shown in Tables 7 and 8 (2D culture), and Tables 9 and 10 (3D culture). From the results, it was shown that the compound of the present zo invention has a YAP phosphorylation inhibitory action under both 2D and 3D culture conditions.

[2] = target: T1, LATS1 (Homo sapiens, UniProt O95835); assay: Kinase inhibitory activity against LATS1 (ADP quantification); format: biochemical; conditions: ATP 400 μM, read-out: kinase inhibitory rate; for inhibition at 0.1 µM: final concentration 100 nM; for inhibition at 1 µM: final concentration 1000 nM
T1 construct: purchased Carna Biosciences
T1 sequence (O95835 1-1130): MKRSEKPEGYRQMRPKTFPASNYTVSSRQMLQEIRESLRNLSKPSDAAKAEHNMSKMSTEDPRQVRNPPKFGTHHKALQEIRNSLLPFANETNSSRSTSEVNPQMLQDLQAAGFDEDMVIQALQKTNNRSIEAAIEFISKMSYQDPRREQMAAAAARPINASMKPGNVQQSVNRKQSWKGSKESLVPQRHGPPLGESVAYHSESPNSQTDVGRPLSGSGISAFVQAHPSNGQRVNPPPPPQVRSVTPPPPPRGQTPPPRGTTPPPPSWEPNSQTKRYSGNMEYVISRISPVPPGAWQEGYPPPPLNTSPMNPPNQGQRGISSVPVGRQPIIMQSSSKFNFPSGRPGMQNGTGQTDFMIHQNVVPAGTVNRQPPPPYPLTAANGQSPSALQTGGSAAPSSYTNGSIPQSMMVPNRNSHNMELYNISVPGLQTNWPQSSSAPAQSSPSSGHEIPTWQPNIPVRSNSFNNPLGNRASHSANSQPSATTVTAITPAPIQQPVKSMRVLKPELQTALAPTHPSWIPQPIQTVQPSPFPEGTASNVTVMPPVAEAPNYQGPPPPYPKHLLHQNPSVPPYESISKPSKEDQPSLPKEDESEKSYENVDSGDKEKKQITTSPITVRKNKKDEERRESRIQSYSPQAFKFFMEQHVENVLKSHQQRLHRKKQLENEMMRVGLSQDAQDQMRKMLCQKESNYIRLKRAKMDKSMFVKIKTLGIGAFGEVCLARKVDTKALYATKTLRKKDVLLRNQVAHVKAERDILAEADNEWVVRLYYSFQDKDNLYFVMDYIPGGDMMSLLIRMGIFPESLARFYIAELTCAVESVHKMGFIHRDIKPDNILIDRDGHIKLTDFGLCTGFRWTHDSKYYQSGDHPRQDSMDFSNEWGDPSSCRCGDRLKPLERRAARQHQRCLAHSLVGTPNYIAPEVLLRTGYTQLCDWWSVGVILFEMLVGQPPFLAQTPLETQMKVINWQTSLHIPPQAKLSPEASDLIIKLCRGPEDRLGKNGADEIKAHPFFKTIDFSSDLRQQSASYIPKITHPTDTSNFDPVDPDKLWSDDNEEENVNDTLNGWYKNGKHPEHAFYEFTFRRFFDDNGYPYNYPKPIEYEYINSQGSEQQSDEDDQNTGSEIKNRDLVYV
Procedure: (§1) Evaluation of the inhibitory activity (calculation of kinase inhibitory rate) of the compound of the present invention against LATS1 and LATS2 (manufactured by Carna Biosciences) was performed. The activity was measured using the Kinase Assay method described below. The test concentration of the compound of the present invention was set such that the final concentration was 100 nM or 1000 nM.
(§2) As the analysis method of the data, the mean signal of the control well containing reaction components other than the compound of the present invention was set to 0% inhibition, the mean signal without enzyme addition was set to 100% inhibition, and the inhibition rate was calculated from the mean signal of 2 wells of each compound.
(§3) 2 μL of a compound of the present invention solution at 2.5-fold concentration, 1 μL of substrate at 5-fold concentration (SGKtide: NH2-CKKRNRRLSVA-COOH, manufactured by SignalChem), ATP (manufactured by Sigma-Aldrich), MgCl2 (manufactured by FUJIFILM Wako Pure Chemical Corporation) solution (final concentration 10 μM, 400 μM and 5 mM, respectively), and 2 μL of kinase solution at 2.5-fold concentration (final concentration of LATS1 or LATS2 5 μg/mL), each prepared with assay buffer (20 mM HEPES, 0.01% Triton X-100, 2 mM DTT, 50 μg/mL BSA, pH 7.5), were mixed in the wells of a polypropylene 384-well plate (manufactured by Greiner Bio-One, #784900) and reacted at room temperature for 5 hr. To the solution was added 5 μL detection solution [Fluorospark (registered trade mark) Kinase/ADP Multi-Assay Kit; manufactured by FUJIFILM Wako Pure Chemical Corporation], and the mixture was reacted at room temperature for 30 min. Successively, 5 μL of a reaction quenching liquid [Fluorospark (registered trade mark) Kinase/ADP Multi-Assay Kit; manufactured by FUJIFILM Wako Pure Chemical Corporation] was added to discontinue the reaction. Thereafter, the ADP concentration of the reaction solution was quantified by EnSpire (manufactured by PerkinElmer) to detect the kinase reaction.

[3] = target: T2, LATS2 (Homo sapiens, UniProt Q9NRM7); assay: Kinase inhibitory activity against LATS2 (ADP quantification); format: biochemical; conditions: ATP 400 μM, read-out: kinase inhibitory rate; for inhibition at 0.1 µM: final concentration 100 nM; for inhibition at 1 µM: final concentration 1000 nM
T2 construct: purchased Carna Biosciences
T2 sequence (Q9NRM7 1-1088): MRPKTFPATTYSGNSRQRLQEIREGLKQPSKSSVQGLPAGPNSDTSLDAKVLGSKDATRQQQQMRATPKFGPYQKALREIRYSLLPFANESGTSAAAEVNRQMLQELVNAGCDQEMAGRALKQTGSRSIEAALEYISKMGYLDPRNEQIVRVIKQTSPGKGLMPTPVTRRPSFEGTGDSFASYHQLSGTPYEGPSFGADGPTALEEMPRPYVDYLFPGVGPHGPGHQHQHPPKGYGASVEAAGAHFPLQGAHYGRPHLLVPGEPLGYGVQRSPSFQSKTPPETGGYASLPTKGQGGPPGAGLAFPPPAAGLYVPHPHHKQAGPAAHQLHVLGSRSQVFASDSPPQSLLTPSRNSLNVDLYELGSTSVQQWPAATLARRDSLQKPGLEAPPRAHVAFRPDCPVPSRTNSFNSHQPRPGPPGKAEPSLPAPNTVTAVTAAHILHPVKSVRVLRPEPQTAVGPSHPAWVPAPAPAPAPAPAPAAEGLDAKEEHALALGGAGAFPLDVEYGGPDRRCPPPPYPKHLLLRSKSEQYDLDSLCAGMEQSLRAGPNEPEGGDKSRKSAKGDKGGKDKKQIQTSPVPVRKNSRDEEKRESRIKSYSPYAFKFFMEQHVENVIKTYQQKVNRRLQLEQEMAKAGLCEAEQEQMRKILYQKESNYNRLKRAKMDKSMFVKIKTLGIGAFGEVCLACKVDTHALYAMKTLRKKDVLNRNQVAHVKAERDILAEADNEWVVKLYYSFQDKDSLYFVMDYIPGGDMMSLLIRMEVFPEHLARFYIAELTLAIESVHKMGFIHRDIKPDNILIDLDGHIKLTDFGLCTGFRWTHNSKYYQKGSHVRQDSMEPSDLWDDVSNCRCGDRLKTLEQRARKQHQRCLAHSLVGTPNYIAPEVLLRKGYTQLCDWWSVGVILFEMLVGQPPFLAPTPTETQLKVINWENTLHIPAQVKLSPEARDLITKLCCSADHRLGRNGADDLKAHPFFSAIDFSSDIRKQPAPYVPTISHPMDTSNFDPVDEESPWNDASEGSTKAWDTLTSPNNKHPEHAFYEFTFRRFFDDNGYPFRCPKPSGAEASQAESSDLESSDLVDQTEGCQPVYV
Procedure: as §1, §2, §3

| Structure (SMILES) | phosphorylated YAP amount (%) ([1]; 2D culture conditions) | total YAP amount (%) ([1]; 2D culture conditions) | phosphorylated YAP amount (%) ([1]; 3D culture conditions) | total YAP amount (%) ([1]; 3D culture conditions) | inhibition at 0.1 µM [2] | inhibition at 1 µM [2] | inhibition at 0.1 µM [3] | inhibition at 1 µM [3] |
| --- | --- | --- | --- | --- | --- | --- | --- | --- |
| CC/C(=N\NC(=O)[C@@H](C)Nc1cncc(Cl)c1)c1ccc(O)c(C)c1O [A-011] | 46% | 91% | 55% | 98% |  |  |  |  |
| CC/C(=N\NC(=O)CNc1cccnc1)c1ccc(O)c(C)c1O [A-002] | 50% | 85% | 78% | 100% |  |  |  |  |
| CC/C(=N\NC(=O)[C@@H](C)Nc1ccc(F)nc1)c1ccc(O)c(C)c1O [A-010] | 11% | 94% | 20% | 114% |  |  |  |  |
| CC/C(=N\NC(=O)[C@@H](C)Nc1ccc(Cl)nc1)c1ccc(O)c(C)c1O [A-012] | 19% | 87% | 23% | 103% |  |  |  |  |
| CC/C(=N\NC(=O)[C@@H](C)Nc1cncc(C(F)(F)F)c1)c1ccc(O)c(C)c1O [A-013] | 42% | 91% | 49% | 96% |  |  |  |  |
| CC/C(=N\NC(=O)C(CC)Nc1cccnc1)c1ccc(O)c(C)c1O (stereo not drawn) [A-005] | 27% | 94% | 30% | 102% |  |  |  |  |
| CC/C(=N\NC(=O)[C@@H](C)Nc1cncnc1)c1ccc(O)c(C)c1O [A-017, (R,E)-N′-[1-(2,4-dihydroxy-3-methylphenyl)propylidene]-2-(pyrimidin-5-ylamino)propanehydrazide] |  |  |  |  | ≥ 40% | ≥ 40% | ≥ 40% | ≥ 40% |
| CC/C(=N\NC(=O)CNc1ccccn1)c1ccc(O)c(C)c1O [A-001, (E)-N′-(1-(2,4-dihydroxy-3-methylphenyl)propylidene)-2-(pyridin-2-ylamino)acetohydrazide] |  |  |  |  | ≥ 40% | ≥ 40% | ≥ 40% | ≥ 40% |
| CC/C(=N\NC(=O)[C@@H](C)Nc1cncc(F)c1)c1ccc(O)c(C)c1O [A-007R] | 8% | 98% | 15% | 108% |  |  |  |  |
